Assay results published in paper PMC8522630 (Cell, 2021).

Tests used:
[1] = target: H-2K^b (Mus musculus, UniProt P01901, A160C/Y105C); experiment: Differential Scanning Fluorimetry of pMHC thermal melting; format: binding; details: DSF, 50 mM HEPES pH 7.5, SYPRO Orange; Tm averaged from 3 experiments; compared to mLAMA4
[2] = tested on: antigen-specific CD8 T cells in KP lung adenocarcinoma; format: in vivo, mouse; details: 5–6 weeks; for CD8 T cell response magnitude, antigen expressed alone: LucA (mALG8) or LucL (mLAMA4); for proportion of TCF1+ progenitor cells, antigens co-expressed / CD8 T cell response magnitude, antigens co-expressed: LucAL; for CD8 T cell response magnitude, antigens co-expressed: compared to the single-antigen setting

H-2K^b, sequence (P01901 22-295 Y105C/A160C limits assumed): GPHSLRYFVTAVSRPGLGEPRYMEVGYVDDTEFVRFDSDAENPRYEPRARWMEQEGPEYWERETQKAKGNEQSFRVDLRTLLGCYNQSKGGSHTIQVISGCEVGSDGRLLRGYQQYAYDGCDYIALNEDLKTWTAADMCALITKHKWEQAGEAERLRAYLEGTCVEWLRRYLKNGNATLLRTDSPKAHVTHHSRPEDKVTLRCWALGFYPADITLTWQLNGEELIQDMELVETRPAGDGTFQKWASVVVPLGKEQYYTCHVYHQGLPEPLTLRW
H-2K^b, sequence (P61769 21-119 partner): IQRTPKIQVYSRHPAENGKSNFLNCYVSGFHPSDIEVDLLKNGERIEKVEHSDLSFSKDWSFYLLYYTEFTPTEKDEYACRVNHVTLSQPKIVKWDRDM

Row | Sequence | pMHC complex stability (Koff), relative to mLAMA4 [1] | CD8 T cell response magnitude, antigen expressed alone [2] | proportion of TCF1+ progenitor cells, antigens co-expressed [2] | CD8 T cell response magnitude, antigens co-expressed [2]
1 | ITYTWTRL [mALG8] | similar, but slightly lower affinity and stability | responses of equivalent magnitude | increased for both responses (Figure S3M), trending towards greater enrichment for the mALG8 response | neither response became dominant in terms of T cell expansion, but both decreased in magnitude compared to the single-antigen setting
2 | VGFNFRTL [mLAMA4] | – | responses of equivalent magnitude | increased for both responses | neither response became dominant in terms of T cell expansion, but both decreased in magnitude compared to the single-antigen setting
